Assay results as given in patent publication US20140005412A1, “TREATMENT OF ARTERIAL AGEING BY HMG CoA REDUCTASE INHIBITOR” (FARMICOM PHARMACEUTICAL COMPANY D.O.O., priority 2011, published 2014).

What was measured:
brachial artery = assay: Ultrasound measurement of flow-mediated dilatation of brachial artery (FMD), endothelial function; format: in vivo, human; conditions: for FMD, after treatment: after 1 month (30 days) treatment; for FMD, improvement: after 1 month vs before treatment
Procedure: Fifty apparently healthy male individuals (42.6±1.9 years) were recruited in double blind, randomized study. Inclusion criteria were: The control group (n=25) received placebo, while the test group (n=25) received subtherapeutic daily dose of fluvastatin sodium-10 mg daily (the recommended therapeutic daily dose is 40 to 80 mg) during a period of 1 month-30 days. All subjects underwent clinical examination, blood pressure measurements ([…] automated sphygmomanometer) and ultrasound measurement of flow-mediated dilatation of brachial artery (FMD), pulse-wave velocity (PWV) and β-stiffness of carotid artery at inclusion (0th day) and after 1 month (30th day) of the study. Fasting blood samples were taken at the beginning and at the end of the study for laboratory analysis. Blood glucose, electrolytes and cholesterol were obtained using the VITRO 5.1 FS Chemical system (Ortho Clinical Diagnostics, Inc.). Ultrasound measurements were performed by a single examiner using Aloka ProSound Alpha 10 echo-machine. Endothelial function was measured by means of FMD on the brachial artery according to FMD guidelines (Corretti M C et al. Guidelines for the ultrasound assessment of endothelial-dependent flow-mediated vasodilation of the brachial artery: a report of the International Brachial Artery Reactivity Task Force. J Am Coll Cardiol 2002; 39: 257-65). The echo-machine continuously tracked and recorded the brachial artery diameter. Following the measurement of baseline brachial artery diameter (1 min), the forearm blood pressure cuff was inflated to 50 mmHg above the systolic pressure for 4 min. After the occlusion period, the cuff was rapidly deflated, inducing reactive hyperemia, and the brachial artery diameter was recorded for 3 min. At the end of the measurement, the machine automatically provided the values of FMD. All values were expressed as arithmetic mean±SEM and were normally distributed. Differences between values recorded at the beginning (0th day) and at the end of the study (30th day) were determined by one-way analysis of variance (ANOVA). When a significant interaction was present, the Bonferroni post-test was performed. […] All statistical analyses were performed using Graph Pad Prism 5.0 software.

[1] = system: right common carotid artery; assay: Ultrasound measurement of pulse-wave velocity (PWV); format: in vivo, human; conditions: for PWV, after treatment: after 1 month (30 days) treatment; for PWV, improvement: after 1 month vs before treatment
Procedure: (§1) Fifty apparently healthy male individuals (42.6±1.9 years) were recruited in double blind, randomized study. Inclusion criteria were: The control group (n=25) received placebo, while the test group (n=25) received subtherapeutic daily dose of fluvastatin sodium-10 mg daily (the recommended therapeutic daily dose is 40 to 80 mg) during a period of 1 month-30 days. All subjects underwent clinical examination, blood pressure measurements ([…] automated sphygmomanometer) and ultrasound measurement of flow-mediated dilatation of brachial artery (FMD), pulse-wave velocity (PWV) and β-stiffness of carotid artery at inclusion (0th day) and after 1 month (30th day) of the study. Fasting blood samples were taken at the beginning and at the end of the study for laboratory analysis. Blood glucose, electrolytes and cholesterol were obtained using the VITRO 5.1 FS Chemical system (Ortho Clinical Diagnostics, Inc.). The measurements of PWV and β-stiffness were performed on the right common carotid artery. The Aloka ultrasound device was also equipped with special software for automatic determination of the PWV and beta-stiffness through the analysis of pulse waves (Carerj S et al. Normal vascular aging evaluated by a new tool: e-tracking. Eur J Echocardiography 2006; suppl: S 49). All values were expressed as arithmetic mean±SEM and were normally distributed. Differences between values recorded at the beginning (0th day) and at the end of the study (30th day) were determined by one-way analysis of variance (ANOVA). When a significant interaction was present, the Bonferroni post-test was performed. […] All statistical analyses were performed using Graph Pad Prism 5.0 software.

[2] = system: right common carotid artery; assay: Ultrasound measurement of β-stiffness of carotid artery; format: in vivo, human; conditions: for β-stiffness, after treatment: after 1 month (30 days) treatment; for β-stiffness, improvement: after 1 month vs before treatment
Procedure: as §1

arterial wall [3] = assay: "Biological" arterial age according to age-related normogram; format: in vivo, human
Excerpt: It is important to emphasize that there is a similarity between the terms morphological or structural which are used to describe the same characteristics by different authors but basically disclose the same characteristics of arterial wall. All three above mentioned methods FMD, PWV, and β-stiffness are standard in the art and generally widely accepted methods for estimation of functional or morphological characteristics of arteries. When administering the pharmaceutical composition according to the present invention the significant and unexpected improvement in all above mentioned characteristics are observed. Furthermore, by using age-related normogram obtained on large sample of apparently healthy subjects—who have a low cardiovascular risk as defined above—the estimation of “biological” arterial age can be determined. […] By using age-related normogram (according to the methods described in Jurasic M J et al. Beta stiffness—setting age standards. Acta Clin Croat 2009; 48:253-8; and Carerj S. Normal vascular ageing evaluated by a new tool: e-tracking. Eur J Echocardiography 2006; suppl 1:S49. Carerj S et al. Eur J Echocardiography 2006; suppl: S 49) the “biological” arterial age in participants according to Example 1 after 1 month of treatment and according to Example 2 after 5, 7 and 8 months after discontinuation of treatment was calculated (FIG. 3).

[4] = Fasting blood laboratory analysis (cholesterol, triglycerides, glucose); format: in vivo, human; conditions: Example 1, n=25, 10 mg daily, mean ± SEM
Excerpt: All subjects underwent clinical examination, blood pressure measurements ([…] automated sphygmomanometer) and ultrasound measurement of flow-mediated dilatation of brachial artery (FMD), pulse-wave velocity (PWV) and β-stiffness of carotid artery at inclusion (0th day) and after 1 month (30th day) of the study. Fasting blood samples were taken at the beginning and at the end of the study for laboratory analysis. Blood glucose, electrolytes and cholesterol were obtained using the VITRO 5.1 FS Chemical system (Ortho Clinical Diagnostics, Inc.).

arterial wall [5] = assay: "Biological" arterial age according to age-related normogram; format: in vivo, human; remark: listed apart in the source
[6] = blood plasma; cited from earlier work
[7] = Example 2, rest period 7 months
[8] = Example 2, rest period 8 months
[9] = Example 4, 10 mg daily, after 1 month treatment period
[10] = Example 5, rest period 5 months
[11] = Example 5, rest period 8 months
[12] = Example 6, ten participants, 10 mg daily, 1. intervention, before
[13] = Example 6, 1. intervention, after 1 month of treatment
[14] = Example 6, 2. intervention (repetition), after 1 month of treatment
[15] = Example 6, 2. intervention (repetition), before, after rest period of 12 months
[16] = Example 1 study, 10 mg, after 30 days of treatment
[17] = Example 2, rest period 5 months
[18] = Example 5, rest period 3 months

CC(C)n1c(/C=C/C(O)CC(O)CC(=O)O)c(-c2ccc(F)cc2)c2ccccc21 (stereo not drawn) [Fluvastatin sodium, fluvastatin sodium]
FMD, after treatment (brachial artery; Example 1, 10 mg daily): 4.39%
FMD, improvement (brachial artery; Example 1, 10 mg daily): +91.0%
FMD, before treatment (brachial artery; Example 1, 10 mg daily): 2.31%
FMD increased by (brachial artery; Example 1 study (50 subjects, double-blind), 10 mg, after 30 days of treatment): 91.0%
FMD, residual improvement in % of effect achieved after 1 month of treatment (brachial artery; Example 2 (participants of Example 1), rest period 5 months): 53.3%
FMD, residual improvement in % of effect achieved after 1 month of treatment (brachial artery; [7]): 33%
FMD, residual improvement in % of effect achieved after 1 month of treatment (brachial artery; [8]): 10.5%
FMD increased by (brachial artery; [9]): 120.8%
FMD, after treatment (brachial artery; Example 4, 10 mg daily): 5.30%
FMD, improvement (brachial artery; Example 4, 10 mg daily): +120.8%
FMD, before treatment (brachial artery; Example 4, healthy males n=15, 10 mg daily): 2.40%
FMD, residual improvement in % of effect achieved after 1 month of treatment (brachial artery; Example 5 (participants of Example 4), rest period 3 months): 73.4%
FMD, residual improvement in % of effect achieved after 1 month of treatment (brachial artery; [10]): 55.2%
FMD, residual improvement in % of effect achieved after 1 month of treatment (brachial artery; [11]): 16.3%
FMD (brachial artery; [12]): 3.5 ± 0.6%
FMD (brachial artery; [13]): 5.3 ± 0.6%
FMD (brachial artery; [14]): 5.7 ± 0.2%
FMD (brachial artery; [15]): 3.9 ± 0.8%
PWV, after treatment ([1]; Example 1, 10 mg daily): 5.41 m/s
PWV, improvement ([1]; Example 1, 10 mg daily): −6.4%
PWV, before treatment ([1]; Example 1, 10 mg daily): 5.76 m/s
PWV decreased by [1, 16]: 6.4%
PWV, residual improvement in % of effect achieved after 1 month of treatment [1, 17]: 29.7%
PWV, residual improvement in % of effect achieved after 1 month of treatment [1, 7]: 10%
PWV, residual improvement in % of effect achieved after 1 month of treatment [1, 8]: 1.9%
PWV decreased by [1, 9]: 10.4%
PWV, after treatment ([1]; Example 4, 10 mg daily): 5.00 m/s
PWV, improvement ([1]; Example 4, 10 mg daily): −10.4%
PWV, before treatment ([1]; Example 4, 10 mg daily): 5.52 m/s
PWV, residual improvement in % of effect achieved after 1 month of treatment [1, 18]: 55.2%
PWV, residual improvement in % of effect achieved after 1 month of treatment [1, 10]: 30.1%
PWV, residual improvement in % of effect achieved after 1 month of treatment [1, 11]: 5.2%
PWV [1, 12]: 5.5 ± 0.4 m/s
PWV [1, 13]: 5.1 ± 0.4 m/s
PWV [1, 14]: 5.3 ± 0.3 m/s
PWV [1, 15]: 5.6 ± 0.3 m/s
β-stiffness, after treatment ([2]; Example 1, 10 mg daily): 6.40 U
β-stiffness, improvement ([2]; Example 1, 10 mg daily): −10.9%
β-stiffness, before treatment ([2]; Example 1, 10 mg daily): 7.10 U
β-stiffness decreased by [2, 16]: 10.9%
β-stiffness, residual improvement in % of effect achieved after 1 month of treatment [2, 17]: 30.4%
β-stiffness, residual improvement in % of effect achieved after 1 month of treatment [2, 7]: 9%
β-stiffness, residual improvement in % of effect achieved after 1 month of treatment [2, 8]: 0.9%
β-stiffness of the carotid artery decreased by [2, 9]: 12.7%
β-stiffness, after treatment ([2]; Example 4, 10 mg daily): 6.10 U
β-stiffness, improvement ([2]; Example 4, 10 mg daily): −12.7%
β-stiffness, before treatment ([2]; Example 4, 10 mg daily): 6.88 U
β-stiffness, residual improvement in % of effect achieved after 1 month of treatment [2, 18]: 50.1%
β-stiffness, residual improvement in % of effect achieved after 1 month of treatment [2, 10]: 33.6%
β-stiffness, residual improvement in % of effect achieved after 1 month of treatment [2, 11]: 3.1%
β-stiffness [2, 12]: 6.4 ± 0.8 U
β-stiffness [2, 13]: 5.7 ± 0.7 U
β-stiffness [2, 14]: 6.0 ± 0.6 U
β-stiffness [2, 15]: 6.6 ± 0.6 U
Arterial age according to age normogram, after treatment (arterial wall [3]; Example 1, 10 mg daily, after 1 month treatment): 38.2 years
Arterial age according to age normogram, improvement (arterial wall [3]; Example 1, 10 mg daily, after 1 month vs before treatment): −6.8 years
Arterial age according to age normogram, before treatment (arterial wall [3]; Example 1, 10 mg daily, before treatment): 45.0 years
Arterial age according to age-related normogram (arterial wall [3]; [17]): 42.3 years
Arterial age according to age-related normogram, difference (in brackets) to before treatment (arterial wall [3]; [17]): −2.7 years
Arterial age according to age-related normogram, difference (in brackets) to before treatment (arterial wall [3]; [8]): −0.5 years
HDL cholesterol ([4]; 1st day (baseline)): 1.2 ± 0.1 mmol/L
LDL cholesterol ([4]; 1st day (baseline)): 3.7 ± 0.2 mmol/L
Total cholesterol ([4]; 1st day (baseline)): 5.7 ± 0.2 mmol/L
Triglycerides ([4]; 1st day (baseline)): 1.6 ± 0.2 mmol/L
HDL cholesterol ([4]; 30th day): 1.2 ± 0.1 mmol/L
LDL cholesterol ([4]; 30th day): 3.6 ± 0.2 mmol/L
Total cholesterol ([4]; 30th day): 5.4 ± 0.2 mmol/L
Triglycerides ([4]; 30th day): 1.6 ± 0.3 mmol/L
Arterial age according to age-related normogram (arterial wall [5]; [7]): 43.6 years
Arterial age according to age-related normogram, difference (in brackets) to before treatment (arterial wall [5]; [7]): −1.4 years
Arterial age according to age-related normogram (arterial wall [5]; [8]): 44.5 years
Arterial age according to age-related normogram, after treatment (arterial wall [5]; Example 4, 10 mg daily, after 1 month treatment): 32.0 years
Arterial age according to age-related normogram, improvement (arterial wall [5]; Example 4, 10 mg daily, after 1 month vs before treatment): −9.0 years
Arterial age according to age-related normogram, before treatment (arterial wall [5]; Example 4, 10 mg daily, before treatment): 41.0 years
Arterial age according to age-related normogram (arterial wall [5]; [18]): 34.2 years
Arterial age according to age-related normogram, difference (in brackets) to before treatment (arterial wall [5]; [18]): −6.8 years
Arterial age according to age-related normogram (arterial wall [5]; [10]): 36.4 years
Arterial age according to age-related normogram, difference (in brackets) to before treatment (arterial wall [5]; [10]): −4.6 years
Arterial age according to age-related normogram (arterial wall [5]; [11]): 40.0 years
Arterial age according to age-related normogram, difference (in brackets) to before treatment (arterial wall [5]; [11]): −1.0 years
half-life time (t1/2) [6]: about 2.5 hours
